Activity calls are given as the source filed them. No cut-off for these calls is given here.
Assays:
[1] = biological target: T1, Histone-arginine methyltransferase CARM1 (Homo sapiens) (UniProt Q86X55); experiment: Inhibition of human PRMT4 using histone H3 as substrate and SAM as cofactor at 10 uM by radiometric HotSpot assay relative to control
T1 sequence (whole entry): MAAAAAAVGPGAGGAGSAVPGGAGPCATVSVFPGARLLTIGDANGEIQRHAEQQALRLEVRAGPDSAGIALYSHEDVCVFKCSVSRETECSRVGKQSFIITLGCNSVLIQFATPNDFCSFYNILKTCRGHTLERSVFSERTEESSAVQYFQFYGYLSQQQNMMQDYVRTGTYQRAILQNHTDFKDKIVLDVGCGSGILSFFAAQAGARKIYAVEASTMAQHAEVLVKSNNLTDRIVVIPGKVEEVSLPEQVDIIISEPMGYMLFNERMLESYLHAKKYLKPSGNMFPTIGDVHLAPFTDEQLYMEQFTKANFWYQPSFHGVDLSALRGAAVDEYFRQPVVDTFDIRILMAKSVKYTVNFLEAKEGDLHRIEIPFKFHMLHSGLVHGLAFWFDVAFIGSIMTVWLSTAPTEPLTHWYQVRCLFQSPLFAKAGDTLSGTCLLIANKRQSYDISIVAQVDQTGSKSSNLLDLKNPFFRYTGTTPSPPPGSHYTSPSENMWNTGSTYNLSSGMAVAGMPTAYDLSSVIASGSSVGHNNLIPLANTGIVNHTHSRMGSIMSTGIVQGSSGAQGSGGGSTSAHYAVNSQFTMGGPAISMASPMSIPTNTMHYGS

[2] = biological target: Protein arginine N-methyltransferase 1 (Homo sapiens, UniProt Q99873); experiment: Inhibition of human PRMT1 using H4-21peptide as substrate at 10 uM incubated for 10 mins by fluorescence based analysis relative to control
[3] = biological target: Protein arginine N-methyltransferase 8 (Homo sapiens, UniProt Q9NR22); experiment: Inhibition of human PRMT8 using Histone H4 as substrate and SAM as cofactor at 10 uM by radiometric HotSpot assay relative to control
[4] = biological target: Protein arginine N-methyltransferase 3 (Homo sapiens, UniProt O60678); experiment: Inhibition of human PRMT3 using H4-21peptide as substrate at 10 uM incubated for 10 mins by fluorescence based analysis relative to control
[5] = biological target: Protein arginine N-methyltransferase 6 (Homo sapiens, UniProt Q96LA8); experiment: Inhibition of human PRMT6 using GST-GAR as substrate and SAM as cofactor at 10 uM by radiometric HotSpot assay relative to control
Chain of Protein arginine N-methyltransferase 6 (Q96LA8 whole entry, looked up): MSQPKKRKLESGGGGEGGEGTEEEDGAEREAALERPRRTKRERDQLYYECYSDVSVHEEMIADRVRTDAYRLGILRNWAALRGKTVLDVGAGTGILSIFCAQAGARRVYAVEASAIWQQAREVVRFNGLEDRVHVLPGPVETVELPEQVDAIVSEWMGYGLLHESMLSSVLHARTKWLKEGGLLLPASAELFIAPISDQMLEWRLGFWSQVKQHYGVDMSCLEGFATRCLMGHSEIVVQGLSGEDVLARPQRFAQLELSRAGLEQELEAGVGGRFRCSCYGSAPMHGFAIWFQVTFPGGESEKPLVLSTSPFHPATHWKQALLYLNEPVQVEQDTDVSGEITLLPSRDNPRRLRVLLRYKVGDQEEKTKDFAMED

Chain of Protein arginine N-methyltransferase 8 (Q9NR22 2-394 limits assumed): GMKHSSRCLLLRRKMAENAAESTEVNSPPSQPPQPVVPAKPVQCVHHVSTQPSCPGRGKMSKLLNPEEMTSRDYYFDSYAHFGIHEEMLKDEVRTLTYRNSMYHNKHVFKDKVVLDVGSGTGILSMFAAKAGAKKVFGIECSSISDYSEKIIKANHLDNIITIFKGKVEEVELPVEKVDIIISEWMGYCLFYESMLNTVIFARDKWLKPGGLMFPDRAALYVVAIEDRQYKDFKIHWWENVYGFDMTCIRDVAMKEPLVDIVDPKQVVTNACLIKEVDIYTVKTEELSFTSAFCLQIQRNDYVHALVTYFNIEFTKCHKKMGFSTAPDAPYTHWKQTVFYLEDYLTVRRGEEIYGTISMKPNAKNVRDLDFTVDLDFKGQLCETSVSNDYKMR
Chain of Protein arginine N-methyltransferase 3 (O60678 2-531 limits assumed): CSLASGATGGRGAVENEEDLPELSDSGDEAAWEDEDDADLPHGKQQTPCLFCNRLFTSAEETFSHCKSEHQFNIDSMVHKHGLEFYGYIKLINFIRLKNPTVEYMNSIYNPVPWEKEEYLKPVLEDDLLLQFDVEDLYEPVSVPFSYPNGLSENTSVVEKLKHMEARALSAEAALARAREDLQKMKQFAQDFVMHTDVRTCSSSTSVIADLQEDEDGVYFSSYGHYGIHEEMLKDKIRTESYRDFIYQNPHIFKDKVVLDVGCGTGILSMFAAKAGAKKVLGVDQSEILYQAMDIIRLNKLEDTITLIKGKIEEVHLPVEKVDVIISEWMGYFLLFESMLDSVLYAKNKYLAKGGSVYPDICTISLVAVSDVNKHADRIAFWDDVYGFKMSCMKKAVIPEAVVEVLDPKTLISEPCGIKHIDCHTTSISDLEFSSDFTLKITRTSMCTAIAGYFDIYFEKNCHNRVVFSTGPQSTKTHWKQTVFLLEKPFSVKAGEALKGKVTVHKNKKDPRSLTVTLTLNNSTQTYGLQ
Chain of Protein arginine N-methyltransferase 1 (Q99873 whole entry, looked up): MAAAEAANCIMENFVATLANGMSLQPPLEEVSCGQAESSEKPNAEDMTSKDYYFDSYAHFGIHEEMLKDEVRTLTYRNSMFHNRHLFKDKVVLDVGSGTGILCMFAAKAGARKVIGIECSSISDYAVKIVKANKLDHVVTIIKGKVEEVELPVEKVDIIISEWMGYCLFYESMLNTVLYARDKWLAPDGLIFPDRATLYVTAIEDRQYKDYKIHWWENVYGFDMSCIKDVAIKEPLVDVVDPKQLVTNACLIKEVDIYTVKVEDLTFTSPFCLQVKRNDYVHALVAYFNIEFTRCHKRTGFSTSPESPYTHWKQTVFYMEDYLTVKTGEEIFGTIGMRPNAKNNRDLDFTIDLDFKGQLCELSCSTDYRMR

Row | Structure (SMILES) | inhibition [1] [%] | inhibition [2] | inhibition [3] [%] | inhibition [4] [%] | inhibition [5] [%]
1 | COc1cc2nc(-c3ccc(N)cc3)nc(NCCSC[C@H]3O[C@@H](n4cnc5c(N)ncnc54)[C@H](O)[C@@H]3O)c2cc1OC | – | inactive | < 50 | < 30 | –
2 | COc1cc2nc(-c3cccc(F)c3)nc(NCCSC[C@H]3O[C@@H](n4cnc5c(N)ncnc54)[C@H](O)[C@@H]3O)c2cc1OC | – | inactive | < 50 | < 30 | –
3 | Nc1ncnc2c1ncn2[C@@H]1O[C@H](CSCCNC(=O)NCCCc2ccccc2)[C@@H](O)[C@H]1O | 27 | < 50% | < 30 | 3 | –
4 | Nc1ncnc2c1ncn2[C@@H]1O[C@H](CSCCNC(=O)Nc2ccccc2)[C@@H](O)[C@H]1O | 27 | < 50% | < 30 | > 50 | –
5 | Nc1ncnc2c1ncn2[C@@H]1O[C@H](CSCCNC(=O)NCc2ccc(-c3ccccc3O)cc2)[C@@H](O)[C@H]1O | 27 | < 50% | < 30 | 3 | –
6 | Nc1ncnc2c1ncn2[C@@H]1O[C@H](CSCCNC(=O)NCc2ccc(F)cc2)[C@@H](O)[C@H]1O | > 90 | < 50% | < 30 | > 50 | –
7 | N=C(NCCCSC[C@H]1O[C@@H](n2cnc3c(N)ncnc32)[C@H](O)[C@@H]1O)Nc1cccc(-c2cccc(F)c2)c1 | > 90 | > 50% | > 95 | – | > 90
8 | N=C(NCCSC[C@H]1O[C@@H](n2cnc3c(N)ncnc32)[C@H](O)[C@@H]1O)Nc1cccc(-c2ccc(Cl)cc2)c1 | > 90 | > 50% | > 95 | – | > 90
9 | Nc1ncnc2c1ncn2[C@@H]1O[C@H](CSCCCNC(=O)NCc2ccccc2)[C@@H](O)[C@H]1O | 27 | < 50% | < 30 | 3 | –
10 | N=C(NCCSC[C@H]1O[C@@H](n2cnc3c(N)ncnc32)[C@H](O)[C@@H]1O)Nc1cccc(-c2cccc(F)c2)c1 | > 90 | > 50% | > 95 | – | > 90
11 | N=C(NCCCSC[C@H]1O[C@@H](n2cnc3c(N)ncnc32)[C@H](O)[C@@H]1O)Nc1cccc(-c2ccc(F)cc2F)c1 | > 90 | > 50% | > 95 | – | > 90
12 | Nc1ncnc2c1ncn2[C@@H]1O[C@H](CSCCNC(=O)NCCc2ccccc2)[C@@H](O)[C@H]1O | 27 | < 50% | < 30 | 3 | –
13 | Nc1ncnc2c1ncn2[C@@H]1O[C@H](CSCCNC(=O)Nc2ccc(Cl)cc2)[C@@H](O)[C@H]1O | 27 | < 50% | < 30 | 3 | –
14 | N=C(NCCCSC[C@H]1O[C@@H](n2cnc3c(N)ncnc32)[C@H](O)[C@@H]1O)Nc1cccc(-c2ccc(Cl)cc2)c1 | > 90 | > 50% | > 95 | – | > 90
15 | Nc1ncnc2c1ncn2[C@@H]1O[C@H](CSCCNC(=O)Nc2ccc(F)cc2)[C@@H](O)[C@H]1O | 27 | < 50% | < 30 | > 50 | –
16 | N=C(NCCCSC[C@H]1O[C@@H](n2cnc3c(N)ncnc32)[C@H](O)[C@@H]1O)Nc1cccc(Br)c1 | > 90 | > 50% | > 95 | – | > 90
17 | Nc1ncnc2c1ncn2[C@@H]1O[C@H](CSCCCNC(=O)NCCc2ccccc2)[C@@H](O)[C@H]1O | 27 | < 50% | < 30 | 3 | –
18 | N=C(NCCCSC[C@H]1O[C@@H](n2cnc3c(N)ncnc32)[C@H](O)[C@@H]1O)Nc1cccc(-c2ccc(F)nc2)c1 | > 90 | > 50% | > 95 | – | > 90
19 | Nc1ncnc2c1ncn2[C@@H]1O[C@H](CSCCCNC(=O)NCc2ccc(F)cc2)[C@@H](O)[C@H]1O | 27 | < 50% | < 30 | 3 | –
20 | Nc1ncnc2c1ncn2[C@@H]1O[C@H](CSCCNC(=O)NCc2ccc(-c3cc[nH]n3)cc2)[C@@H](O)[C@H]1O | 27 | < 50% | < 30 | 3 | –
21 | Nc1ncnc2c1ncn2[C@@H]1O[C@H](CSCCNC(=O)NC2CCCCC2)[C@@H](O)[C@H]1O | 27 | < 50% | < 30 | 3 | –
22 | CCNC(=O)NCCSC[C@H]1O[C@@H](n2cnc3c(N)ncnc32)[C@H](O)[C@@H]1O | 27 | < 50% | < 30 | 3 | –
23 | Nc1ncnc2c1ncn2[C@@H]1O[C@H](CSCCNC(=O)Nc2ccccc2Br)[C@@H](O)[C@H]1O | 27 | < 50% | < 30 | > 50 | –
24 | COc1cc2nc(-c3cccc(O)c3)nc(NCCSC[C@H]3O[C@@H](n4cnc5c(N)ncnc54)[C@H](O)[C@@H]3O)c2cc1OC | – | inactive | < 50 | < 30 | –
25 | Nc1ncnc2c1ncn2[C@@H]1O[C@H](CSCCNC(=O)NCc2ccc3cnccc3c2)[C@@H](O)[C@H]1O | 27 | < 50% | < 30 | 3 | –
26 | COc1cc2nc(-c3ccc(F)c(O)c3)nc(NCCSC[C@H]3O[C@@H](n4cnc5c(N)ncnc54)[C@H](O)[C@@H]3O)c2cc1OC | – | inactive | < 50 | < 30 | –

Results, then the compound that gave them:

Row | inhibition [1] [%] | inhibition [2] | inhibition [3] [%] | inhibition [4] [%] | inhibition [5] [%] | Structure (SMILES)
27 | 27 | < 50% | < 30 | 3 | – | Nc1ncnc2c1ncn2[C@@H]1O[C@H](CSCCNC(=O)NCc2ccc(-c3cn[nH]c3)cc2)[C@@H](O)[C@H]1O
28 | – | inactive | < 50 | < 30 | – | COc1cc2nc(-c3ccccc3O)nc(NCCSC[C@H]3O[C@@H](n4cnc5c(N)ncnc54)[C@H](O)[C@@H]3O)c2cc1OC
29 | > 90 | > 50% | > 95 | – | > 90 | N=C(NCCCSC[C@H]1O[C@@H](n2cnc3c(N)ncnc32)[C@H](O)[C@@H]1O)Nc1cccc(-c2cncnc2)c1
30 | – | inactive | < 50 | < 30 | – | COc1cc2nc(-c3cccc([N+](=O)[O-])c3)nc(NCCSC[C@H]3O[C@@H](n4cnc5c(N)ncnc54)[C@H](O)[C@@H]3O)c2cc1OC
31 | > 90 | > 50% | > 95 | – | > 90 | N=C(NCCCSC[C@H]1O[C@@H](n2cnc3c(N)ncnc32)[C@H](O)[C@@H]1O)Nc1cccc(-c2ccoc2)c1
32 | – | inactive | < 50 | < 30 | – | COc1cc2nc(-c3ccoc3)nc(NCCSC[C@H]3O[C@@H](n4cnc5c(N)ncnc54)[C@H](O)[C@@H]3O)c2cc1OC
33 | – | inactive | < 50 | < 30 | – | COc1cc2nc(-c3ccc(C(F)(F)F)cc3)nc(NCCSC[C@H]3O[C@@H](n4cnc5c(N)ncnc54)[C@H](O)[C@@H]3O)c2cc1OC
34 | > 90 | > 50% | > 95 | – | > 90 | N=C(NCCSC[C@H]1O[C@@H](n2cnc3c(N)ncnc32)[C@H](O)[C@@H]1O)NCc1ccccc1
35 | 27 | < 50% | < 30 | 3 | – | Nc1ncnc2c1ncn2[C@@H]1O[C@H](CSCCNC(=O)Nc2cccc3ccccc23)[C@@H](O)[C@H]1O
36 | 27 | < 50% | < 30 | 3 | – | Nc1ncnc2c1ncn2[C@@H]1O[C@H](CSCCCNC(=O)NCCCc2ccccc2)[C@@H](O)[C@H]1O
37 | > 90 | > 50% | > 95 | – | > 90 | N=C(NCCCSC[C@H]1O[C@@H](n2cnc3c(N)ncnc32)[C@H](O)[C@@H]1O)Nc1cccc(-c2ccc3c(c2)OCCO3)c1
38 | > 90 | > 50% | > 95 | – | > 90 | N=C(NCCCSC[C@H]1O[C@@H](n2cnc3c(N)ncnc32)[C@H](O)[C@@H]1O)Nc1cccc(-c2cccnc2)c1
39 | > 90 | > 50% | > 95 | – | > 90 | N=C(NCCCSC[C@H]1O[C@@H](n2cnc3c(N)ncnc32)[C@H](O)[C@@H]1O)NCc1ccccc1
40 | > 90 | < 50% | < 30 | 3 | – | Nc1ncnc2c1ncn2[C@@H]1O[C@H](CSCCNC(=O)NCc2ccccc2Br)[C@@H](O)[C@H]1O
